Measurements taken from ChEMBL document CHEMBL1141099, “Discovery of N-(2,6-dimethylphenyl)-substituted semicarbazones as anticonvulsants: hybrid pharmacophore-based design” (2005).

Key:
Mus musculus [1] = experiment: Minimum dose required for anticonvulsant activity when given i.p., at 0.5 hr in mice upon subcutaneous pentylenetetrazole seizure; format: functional
[2] = molecular target: 4-aminobutyrate aminotransferase, mitochondrial (Rattus norvegicus) (UniProt P50554); experiment: In vitro percentage inhibition activity against GABA-T enzyme at a concentration of 5 uM after 3 h
Sequence of 4-aminobutyrate aminotransferase, mitochondrial (Rattus norvegicus) (P50554 28-500 limits assumed): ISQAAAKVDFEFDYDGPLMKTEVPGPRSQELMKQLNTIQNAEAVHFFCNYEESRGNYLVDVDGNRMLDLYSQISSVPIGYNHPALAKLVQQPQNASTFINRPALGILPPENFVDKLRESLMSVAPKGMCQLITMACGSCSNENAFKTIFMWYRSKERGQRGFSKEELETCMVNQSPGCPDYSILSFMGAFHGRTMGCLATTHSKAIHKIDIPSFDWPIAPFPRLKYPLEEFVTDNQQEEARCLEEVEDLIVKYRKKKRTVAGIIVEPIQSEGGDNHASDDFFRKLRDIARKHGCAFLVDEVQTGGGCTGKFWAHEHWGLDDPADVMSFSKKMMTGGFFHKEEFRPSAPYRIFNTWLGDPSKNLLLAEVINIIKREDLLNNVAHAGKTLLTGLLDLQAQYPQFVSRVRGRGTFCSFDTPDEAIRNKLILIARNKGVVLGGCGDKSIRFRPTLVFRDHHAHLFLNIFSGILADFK

Rattus norvegicus [3] = experiment: Number of rats protected at a dose of 30 mg/Kg when given oral at 1 hr upon maximal electroshock seizure; Total number of rats = 4; format: functional
[4] = molecular target: 4-aminobutyrate aminotransferase, mitochondrial (Rattus norvegicus) (UniProt P50554); experiment: In vitro percentage inhibition activity against GABA-T enzyme at a concentration of 5 uM after 4.5 h
Mus musculus [5] = experiment: Post treatment activity score for CNS study using a actophotometer at a dose of 100 mg/Kg after 1 h when given i.p., in mice (No. of animals 6); Control (24h before) 238
Mus musculus [6] = experiment: Minimum dose required for anticonvulsant activity when given i.p., at 0.5 hr in mice upon maximal electroshock seizure; format: functional
Rattus norvegicus [7] = experiment: Number of rats protected at a dose of 30 mg/Kg when given oral at 0.5 hr upon maximal electroshock seizure; Total number of rats = 4; format: functional
Rattus norvegicus [8] = experiment: Number of rats protected at a dose of 30 mg/Kg when given oral at 0.25 hr upon maximal electroshock seizure; Total number of rats = 4; format: functional
Rattus norvegicus [9] = experiment: Number of rats protected at a dose of 30 mg/Kg when given oral at 4 hr upon maximal electroshock seizure; Total number of rats = 4; format: functional
Rattus norvegicus [10] = experiment: Effect on GABA level in rat whole brain concentration after 7 days post-treatment at a dose of 30 mg/Kg when given orally; Control 50.5; format: functional
Rattus norvegicus [11] = species on record: Rattus norvegicus; experiment: Ex vitro percentage inhibition activity against GABA-T enzyme at a concentration of 2.5 uM after 6 h; format: functional
Rattus norvegicus [12] = species on record: Rattus norvegicus; experiment: Ex vitro percentage inhibition activity against GABA-T enzyme at a concentration of 2.5 uM after 3 h; format: functional
Rattus norvegicus [13] = experiment: Number of rats protected at a dose of 30 mg/Kg when given oral at 2 hr upon maximal electroshock seizure; Total number of rats = 4; format: functional
Rattus norvegicus [14] = experiment: Effective dose required for anticonvulsant activity when given i.p., at 1 hr in rat upon maximal electroshock seizure; format: functional; conditions: ip
Mus musculus [15] = experiment: Mean sleeping time evaluated for CNS study using the pentobarbital-induced narcosis model at a dose of 100 mg/Kg when given i.p., in mice (No. of animals 6)
Mus musculus [16] = experiment: Minimum dose required for anticonvulsant activity when given i.p., at 2 hr in mice upon subcutaneous strychnine seizure; format: functional
Rattus norvegicus [17] = experiment: Effect on GABA level in rat whole brain concentration after 2 hr post-treatment at a dose of 100 mg/Kg when given i.p.; Control 48.4; format: functional
Mus musculus [18] = experiment: Post treatment activity score for CNS study using a actophotometer at a dose of 100 mg/Kg after 0.5 hr when given i.p., in mice (No. of animals 6); Control (24h before) 238
[19] = molecular target: 4-aminobutyrate aminotransferase, mitochondrial (Rattus norvegicus) (UniProt P50554); experiment: In vitro percentage inhibition activity against GABA-T enzyme at a concentration of 5 uM after 6 h
Mus musculus [20] = experiment: Post treatment immobility time for CNS study using Porsolt's swimpool test at a dose of 100 mg/Kg after 1 hr when given i.p., in mice (No. of animals 6); Control (24h before) 143
Rattus norvegicus [21] = species on record: Rattus norvegicus; experiment: Ex vitro percentage inhibition activity against GABA-T enzyme at a concentration of 2.5 uM after 4.5 h; format: functional
Rattus norvegicus [22] = experiment: Toxic dose observed for anticonvulsant activity when given i.p., at 1 h in rat upon neurotoxicity seizure; format: functional; conditions: ip
Rattus norvegicus [23] = species on record: Rattus norvegicus; experiment: Protective index between effective dose and toxic dose in rat; format: functional
Mus musculus [24] = experiment: Minimum dose required for anticonvulsant activity when given i.p., at 0.5 hr in mice upon subcutaneous strychnine seizure; format: functional
Mus musculus [25] = experiment: Minimum dose required for anticonvulsant activity when given i.p., at 4 hr in mice upon maximal electroshock seizure; format: functional
Mus musculus [26] = experiment: Minimum dose required for anticonvulsant activity when given i.p., in mice upon neurotoxicity seizure using rotarod test
[27] = molecular target: 4-aminobutyrate aminotransferase, mitochondrial (Rattus norvegicus) (UniProt P50554); experiment: In vitro percentage inhibition activity against GABA-T enzyme at a concentration of 1.25 uM after 6 h
Rattus norvegicus [28] = species on record: Rattus norvegicus; experiment: Ex vitro percentage inhibition activity against GABA-T enzyme at a concentration of 1.25 uM after 3 h; format: functional
Rattus norvegicus [29] = species on record: Rattus norvegicus; experiment: Ex vitro percentage inhibition activity against GABA-T enzyme at a concentration of 1.25 uM after 4.5 h; format: functional
Rattus norvegicus [30] = species on record: Rattus norvegicus; experiment: Ex vitro percentage inhibition activity against GABA-T enzyme at a concentration of 1.25 uM after 6 h; format: functional
[31] = molecular target: 4-aminobutyrate aminotransferase, mitochondrial (Rattus norvegicus) (UniProt P50554); experiment: In vitro percentage inhibition activity against GABA-T enzyme at a concentration of 1.25 uM after 4.5 h
[32] = molecular target: 4-aminobutyrate aminotransferase, mitochondrial (Rattus norvegicus) (UniProt P50554); experiment: In vitro percentage inhibition activity against GABA-T enzyme at a concentration of 1.25 uM after 3 h
Mus musculus [33] = experiment: Minimum dose required for anticonvulsant activity when given i.p., at 0.5 hr in mice upon neurotoxicity seizure using rotarod test; format: functional
Mus musculus [34] = experiment: Post treatment activity score for CNS study using a actophotometer at a dose of 100 mg/Kg after 1 hr when given i.p., in mice (No. of animals 6); Control (24h before) 224
Mus musculus [35] = experiment: Post treatment activity score for CNS study using a actophotometer at a dose of 100 mg/Kg after 0.5 hr when given i.p., in mice (No. of animals 6); Control (24h before) 224

Work on `COc1cc(/C=N/NC(=O)Nc2c(C)cccc2C)ccc1O` yielded a PTZ seizure (Mus musculus [1]) of 300 mg/kg, an inhibition [2] of 0% and an Activity (Rattus norvegicus [3]) of 4. For the same compound, the inhibition [4] was 56%, the Activity (Mus musculus [5]) was 130 and the MES (Mus musculus [6]) was 100 mg/kg. For the same compound, the Activity (Rattus norvegicus [7]) was 3, the Activity (Rattus norvegicus [8]) was 3 and the Activity (Rattus norvegicus [9]) was 4. For the same compound, the Activity (Rattus norvegicus [10]) was 106 ug/100mg of tissue, the Inhibition (Rattus norvegicus [11]) was 12% and the Inhibition (Rattus norvegicus [12]) was 0%. It also gave an Activity (Rattus norvegicus [13]) of 3, an ED50 (Rattus norvegicus [14]) of 26.2 mg/kg and a Time (Mus musculus [15]) of 68 min. The STY seizure (Mus musculus [16]) was 100 mg/kg, the Activity (Rattus norvegicus [17]) was 91.2 ug/100mg of tissue and the Activity (Mus musculus [18]) was 157. It also gave an inhibition [19] of 23%, an Activity (Mus musculus [20]) of 207 and an Inhibition (Rattus norvegicus [21]) of 56%. The TD50 (Rattus norvegicus [22]) was over 117 mg/kg, the PI (Rattus norvegicus [23]) was over 4.4 and the STY seizure (Mus musculus [24]) was 30 mg/kg. For the same compound, the MES (Mus musculus [25]) was 300 mg/kg.
`CCCC(CCC)C(=O)O` [VALPROIC ACID] gave an NT (Mus musculus [26]) of 300 mg/kg.
Compound `NNCCc1ccccc1` [PHENELZINE] has an inhibition [27] of 62%, an Inhibition (Rattus norvegicus [28]) of 25% and an Inhibition (Rattus norvegicus [29]) of 85%. The Inhibition (Rattus norvegicus [30]) was 65%, the inhibition [31] was 75% and the inhibition [32] was 0%.
`CCC1(c2ccccc2)C(=O)NC(=O)NC1=O` [PHENOBARBITAL] gave an NT (Mus musculus [26]) of 100 mg/kg and a Time (Mus musculus [15]) of 54 min.
`CC(C)=NNC(=O)Nc1c(C)cccc1C` gave a PTZ seizure (Mus musculus [1]) of 300 mg/kg, an Activity (Rattus norvegicus [3]) of 4 and an MES (Mus musculus [6]) of 100 mg/kg. It also gave an Activity (Rattus norvegicus [7]) of 4, an Activity (Rattus norvegicus [8]) of 3 and an Activity (Rattus norvegicus [9]) of 2. For the same compound, the Activity (Rattus norvegicus [13]) was 3, the NT (Mus musculus [33]) was 300 mg/kg and the STY seizure (Mus musculus [16]) was 100 mg/kg. It also gave an STY seizure (Mus musculus [24]) of 100 mg/kg and an MES (Mus musculus [25]) of 300 mg/kg.
`Cc1cccc(C)c1NC(=O)/N=N/c1c(O)[nH]c2ccc(F)cc12` showed a PTZ seizure (Mus musculus [1]) of 300 mg/kg, an Activity (Rattus norvegicus [3]) of 1 and an MES (Mus musculus [6]) of 100 mg/kg. For the same compound, the Activity (Rattus norvegicus [7]) was 1, the Activity (Mus musculus [34]) was 194 and the Activity (Rattus norvegicus [8]) was 1. For the same compound, the Activity (Rattus norvegicus [9]) was 3, the Activity (Rattus norvegicus [13]) was 1 and the NT (Mus musculus [33]) was 300 mg/kg. For the same compound, the STY seizure (Mus musculus [16]) was 100 mg/kg, the Activity (Mus musculus [35]) was 204 and the STY seizure (Mus musculus [24]) was 30 mg/kg. It also gave an MES (Mus musculus [25]) of 300 mg/kg.
